Measurements: patent US7871635B2, “Use of compound that inactivates protein kinase A in a composition containing a cosmetically acceptable medium for lightening the skin” (Societe d'Exploitation de Produits pour les Industries …, priority 2002, dated 2011)

Test system: B16/F1 melanocyte cultures
Test: Intracellular melanin content in B16/F1 melanocyte cultures
Assay type: cell-based, mouse
Conditions: 72 hours; for Intracellular melanin obtained: control 20 ± 4 μg/ml
Protocol: Mouse melanocytes of the B16/F1 line are inoculated in 96-well culture plates at a density of 1500 cells/well. […] The cells are used at 60% of confluence, i.e. 4 days after inoculation. The MCM medium has the following composition: […] N-Undecylenoylphenylalanine is diluted to 4 mg/ml in decinormal aqueous sodium hydroxide solution. It is tested at 40 μg/ml in the MCM medium. Sodium hydroxide has no effect on the parameters analyzed. […] Given its toxicity, it is not tested at 40 μg/ml. […] Control cultures are incubated, in the absence of product, in the MCM medium. These control cultures are prepared on each culture plate. Each test is performed six times. After incubation for 72 hours, a portion of the cell carpet (n=3) is rinsed with phosphate-buffered saline (PBS; pH=7.4), the composition of which is as follows: NaCl: 8 g/l, Na2HPO4: 1.15 g/l; […] The intracellular melanin is quantified by spectrophotometry at 450 nm. A melanin calibration range is prepared in parallel. The results are expressed as μg/ml of intracellular melanin and as a percentage of inhibition relative to the control group.

[1] = Mus musculus, B16-F1, at 40 μg/ml, read-out: Inhibition of intracellular melanin production

Row | SMILES | inhibition at 40 µg/mL [1] [%] | Intracellular melanin obtained (at 40 μg/ml) [µg/mL] | inhibition at 5 µg/mL (Mus musculus, B16-F1, at 5 μg/ml, read-out: Inhibition of intracellular melanin production) [%] | Intracellular melanin obtained (at 5 μg/ml) [µg/mL]
1 | OC[C@H]1O[C@@H](Oc2ccc(O)cc2)[C@H](O)[C@@H](O)[C@@H]1O [Arbutin, arbutin] | 19 | 16 ± 2 |  | 
2 | Oc1ccc(O)cc1 [Hydroquinone, hydroquinone] |  |  | 100 | 0.2 ± 0.1
3 | O=c1cc(CO)occ1O [Kojic acid, kojic acid] | 17 | 17 ± 1 |  | 
4 | C=CCCCCCCCCC(=O)NC(Cc1ccccc1)C(=O)O (centres unmarked) [N-Undecylenoylphenylalanine, N-(ω-undecylenoyl)phenylalanine] | 66 | 7 ± 3 |  | 
